Test results from ChEMBL document CHEMBL1649504, “Activity of SQ641, a capuramycin analog, in a murine model of tuberculosis” (2009).
≈ marks a conversion by molar mass, not a printed value.

What was measured:
Assay type in all cases: functional
[1] = tested on: Mycobacterium tuberculosis; experiment: Antibacterial activity against Mycobacterium tuberculosis H37Rv infected in C57BL/6 mouse assessed as […] in lung at 25 mg/kg, iv administered 2 times per week measured post last dose
[2] = tested on: Mycobacterium tuberculosis; experiment: Antibacterial activity against Mycobacterium tuberculosis H37Rv infected in C57BL/6 mouse assessed as […] in lung at 5 mg/kg administered for 1 week via oral gavage measured post last dose
[3] = tested on: Mycobacterium tuberculosis; experiment: Antibacterial activity against Mycobacterium tuberculosis H37Rv infected in C57BL/6 mouse assessed as […] in lung at 50 mg/kg, iv administered 2 times per week measured post last dose
[4] = tested on: Mycobacterium avium; experiment: Antimycobacterial activity against Mycobacterium avium
[5] = tested on: Mycobacterium tuberculosis; experiment: Antimycobacterial activity against Mycobacterium tuberculosis
[6] = tested on: Mycobacterium tuberculosis; experiment: Antibacterial activity against Mycobacterium tuberculosis H37Rv infected in C57BL/6 mouse assessed as […] in lung at 100 mg/kg, ip administered 5 times per week measured post last dose; conditions: route intraperitoneal
[7] = tested on: Mycobacterium tuberculosis; experiment: Antibacterial activity against Mycobacterium tuberculosis H37Rv infected in C57BL/6 mouse assessed as […] in lung at 50 mg/kg, ip administered 5 times per week measured post last dose; conditions: route intraperitoneal

`CCCCCCCCCC(=O)O[C@@H]1[C@H](OC)[C@@H]([C@@H](CC(N)=O)O[C@H]2OC(C(=O)N[C@H]3CCC[C@@H](C)NC3=O)=C[C@@H](O)[C@H]2O)O[C@H]1n1ccc(=O)[nH]c1=O` was tested, and the log10cfu [1] was 6.1, the log10cfu [2] was 5.1 and the log10cfu [3] was 6.01. It also gave an MIC [4] of 0.016 µg/mL (≈ 0.0213 µM), an MIC [5] of 1 µg/mL (≈ 1.33 µM) and a log10cfu [6] of 6.15. For the same molecule, the log10cfu [7] was 6.7.
